Assay results as given in ChEMBL document CHEMBL1201862, “PubChem BioAssay data set” (2004).
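Interpolation was linear, between the two tested concentrations surrounding the appropriate level; five concentrations were tested over 48 hours in 96-well plates. GI50: concentration for 50% inhibition of growth.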 Active and inactive are the calls of the source. Rule as the data show it: active = GI50 up to about 1.1 µM and inactive = higher.

Columns and labels:
Experiment in all cases: DTP human tumour cell line panel, 48 h
[1] = tested on: A549
[2] = tested on: SR
[3] = tested on: HCT-116
[4] = tested on: OVCAR-4
[5] = tested on: MOLT-4
[6] = tested on: HCT-15
[7] = tested on: NCI-H522
[8] = tested on: CAKI-1
[9] = tested on: CCRF-CEM
[10] = tested on: SF-268
[11] = tested on: RPMI-8226
[12] = tested on: KM12
[13] = tested on: LOX IMVI
[14] = tested on: NCI-H23
[15] = tested on: PC-3
[16] = tested on: SK-OV-3
[17] = tested on: SK-MEL-28
[18] = tested on: Hs-578T
[19] = tested on: ACHN
[20] = tested on: SNB-19
[21] = tested on: SW-620
[22] = tested on: OVCAR-8
[23] = tested on: K562
[24] = tested on: IGROV-1
[25] = tested on: SN12C
[26] = tested on: COLO 205
[27] = tested on: HT-29
[28] = tested on: T47D
[29] = tested on: DU-145
[30] = tested on: MCF7
[31] = tested on: EKVX
[32] = tested on: HOP-92
[33] = tested on: MDA-N
[34] = tested on: MDA-MB-231
[35] = tested on: Malme-3M
[36] = tested on: A498
[37] = tested on: RXF 393
[38] = tested on: OVCAR-5
[39] = tested on: UACC-257
[40] = tested on: UO-31
[41] = tested on: UACC-62
[42] = tested on: MDA-MB-435
[43] = tested on: HOP-62
[44] = tested on: U-251
[45] = tested on: M14
[46] = tested on: NCI-H460
[47] = tested on: BT-549
[48] = tested on: NCI/ADR-RES
[49] = tested on: 786-0
[50] = tested on: SF-539
[51] = tested on: TK-10
[52] = tested on: SK-MEL-5
[53] = tested on: SK-MEL-2
[54] = tested on: SF-295
[55] = tested on: NCI-H226
[56] = tested on: HL-60
[57] = tested on: OVCAR-3
[58] = tested on: SNB-75
[59] = tested on: HCC 2998

Measured: GI50

COc1ccc(N(CC(=O)O)N=O)cc1
> 100 µM: [6]
inactive: [1] > 100 µM | [2] > 100 µM | [3] > 100 µM | [4] > 100 µM | [5] > 100 µM | [7] > 100 µM | [8] > 100 µM | [9] > 100 µM | [10] > 100 µM | [11] > 100 µM | [12] > 100 µM | [13] > 100 µM | [14] > 100 µM | [15] > 100 µM | [16] > 100 µM | [17] > 100 µM | [18] > 100 µM | [19] > 100 µM | [20] > 100 µM | [21] > 100 µM | [22] > 100 µM | [23] > 100 µM | [24] > 100 µM | [25] > 100 µM | [26] > 100 µM | [27] > 100 µM | [28] > 100 µM | [29] > 100 µM | [30] > 100 µM | [31] > 100 µM | [32] > 100 µM | [33] > 100 µM | [34] > 100 µM | [35] > 100 µM | [36] > 100 µM | [37] > 100 µM | [38] > 100 µM | [39] > 100 µM | [40] > 100 µM | [41] > 100 µM | [42] > 100 µM | [43] > 100 µM | [44] > 100 µM | [45] > 100 µM | [46] > 100 µM | [47] > 100 µM | [48] > 100 µM | [49] > 100 µM | [50] > 100 µM | [51] > 100 µM | [52] > 100 µM | [53] > 100 µM | [54] > 100 µM | [55] > 100 µM | [56] > 100 µM | [57] > 100 µM

C=CCNC(=S)N/N=C1\C(=O)N(CN2CCOCC2)c2ccc([N+](=O)[O-])cc21
inactive: [1] 10.4 µM | [3] 6.46 µM | [4] 22.7 µM | [5] 5.98 µM | [7] 41.4 µM | [8] 5.19 µM | [9] 2.7 µM | [10] 58.6 µM | [11] 33 µM | [12] 28.3 µM | [13] 32.3 µM | [14] 44.9 µM | [15] 24 µM | [16] 36.5 µM | [17] > 100 µM | [18] > 100 µM | [19] 5.3 µM | [20] 21.6 µM | [21] 61.5 µM | [22] 12.7 µM | [23] 18.9 µM | [24] 6.21 µM | [25] 16.4 µM | [26] 34.4 µM | [27] 23.2 µM | [58] 24.3 µM | [28] 17 µM | [29] 18.7 µM | [30] 33.3 µM | [31] 15.4 µM | [32] 13.3 µM | [33] 30.8 µM | [34] 39.8 µM | [35] > 100 µM | [59] 12.9 µM | [36] 7.52 µM | [37] > 100 µM | [38] 56.2 µM | [39] 16.6 µM | [40] 6.18 µM | [41] > 100 µM | [42] 55.1 µM | [43] 20.6 µM | [44] 18.1 µM | [45] 17.2 µM | [46] 4.16 µM | [47] 15.1 µM | [48] 3.74 µM | [49] 15.6 µM | [50] 51.6 µM | [51] 5.36 µM | [52] 9.73 µM | [53] > 100 µM | [54] 7.98 µM | [55] > 100 µM | [56] 24.6 µM | [57] 24.3 µM
5.04 µM: [6]
